Laboratory results taken from patent US20160168616A1, “PRODUCTION OF NONTOXIC RAW MATERIALS AND FINISHED PRODUCTS TESTED BY MEANS OF AN INNOVATIVE PROBIOTIC BACTERIA BASED METHOD FOR DETERMINING TOXICITY TOWARDS PROBIOTIC BACTERIA” (PROBIOTICAL S.P.A., priority 2013, published 2016).

System: probiotic bacterial strains indicated in Table 1 with the numbers 17, 22, 41, 60, 74, 98, 121, 145, 174 and 182
Test: toxicity test of raw materials with the method of the invention (plate count, % mortality)
Assay type: cell-based
Conditions: raw material test; strains 17, 22, 41, 60, 74, 98, 121, 145, 174 and 182 of Table 1 as toxicity markers
Description: The method comprises a step in which the probiotic bacterial strain (toxicity marker) is placed in contact with a raw material to be tested using a quantity of raw material equal to that normally used in the formulation.
In practical terms, a first sample is prepared which comprises the probiotic bacterial strain (toxicity marker), the optimal culture substrate for said probiotic bacterial strain and the raw material to be tested.
Then a second sample (internal reference) is prepared which comprises the same probiotic bacterial strain used in said first sample (toxicity marker) and only the optimal culture substrate (without the raw material to be tested). […]
The ratio between the bacterial count (number of cells counted on the plate) of said first sample and the bacterial count (number of cells on the plate) of said second sample provides a number less than 1, which, if expressed as a percentage, provides a count of the bacteria which survived in contact with the raw material and, therefore, also expresses the % mortality induced by said raw material in the probiotic bacterial strains used as a marker. […]
8.11 incubate the plates upside down at 37±1° C. for 72 h under anaerobic conditions (Gas-Pak+anaerobic kit). […] The result will be expressed as CFU, i.e. Colony Forming Units. […]

## O=C(O)CC(O)(CC(=O)O)C(=O)O [Citric Acid]
  mortality found: 2%
